Results on five compounds are retold here after paper PMC11542186, “Pin1 WW Domain Ligand Library Synthesized with an Easy Solid-Phase Phosphorylating Reagent” (Biochemistry, 2024).

As a reminder, the Kd is the equilibrium constant for the complex coming apart.

Assay [1] addresses T1, Pin1 WW domain (Pin1–HRP) (Homo sapiens, UniProt Q13526).
T1 construct: purchased R&D Systems
In words: ELEBA competitive binding Kd-obs determination. As to conditions: for Kd: competitive with plate-linked L1, concentration at which % Pin1-HRP bound to the plate is 50%, purified resynthesized ligands, 200 pM Pin1–HRP. The method, then: Concentration-dependent ELEBAs were performed for ligands 1{2, d}, 1{18, l}, cis-1{2, n}, and trans-1{2, n} obtained by large-scale manual solid-phase synthesis and purification. The cis- and trans-isomers of 1{2, d} were separated by HPLC. The two diastereomers (∼ 1:1) of 1{18, l} were used as a mixture because they were inseparable in our systems. Competitive dissociation constants (Kd-obs) were measured by ELEBA (Figure 4). Kd-obs values were normalized to percentage Pin1–HRP bound to the plate-linked ligand by setting the lowest concentration of competitive ligand in solution to 100% binding.[32]Kd-obs is defined as the concentration of a ligand where the % Pin1-HRP bound to the plate is 50%.
(§1) The Pin1 WW domain ligand, Fmoc–VPRpTPVGGGK–NH2, (100 μL/well, 245 μM stock solution) was covalently attached to a 96-well plate through the ε-amino group of the Lys side chain at pH 11.0, as published.[44] Ligands were dissolved in DMSO at stock concentrations of ca. 50 mM by weight. Competitive binding with plate-linked Fmoc–VPRpTPVGGGK–NH2L1 of pSer–Pro dipeptides was measured at ca. 600 μM for primary screening. In the primary assays, all library members were screened with the crude products. 1{1-21, d} were measured as mixtures of cis- and trans-isomers. Library members synthesized from racemic reagents, such as 1{1-21, c}, 1{1-21, l}, 1{1-21, q}, 1{3, a-q} and 1{8, a-q} were measured as diastereomeric mixtures. The library members were dissolved in DMSO as stock solutions with a concentration of about 37 mM based on estimated yields. The DMSO stock solution of each compound (4 μL) was added into a solution of recombinant Pin1–HRP (R&D Systems) in a PBS buffer with 2% BSA (pH = 7.3). DMSO (4 μL) was used as a negative control. The final volume of the solution was 250 μL, the final concentration of Pin1–HRP was 200 pM, and the estimated final compound concentration was 590 μM. The resulting solution was preincubated for 30 min at ambient temperature, and was added into two wells (100 μL each, for assay in duplicate) of the ligand-linked plate. The solutions were incubated for another 1 h. The solutions were removed by inverting and shaking the plate, and the plate was washed with buffer ([…], and 0.05% Tween 20 in PBS at pH 7.3) three times. A 1:1 solution of hydrogen peroxide and 3,3,5,5′-tetramethylbenzidine (100 μL) was added into each plate well, and incubated in the dark for 20 min. A 2N H2SO4 solution (50 μL) was added to each well to quench the reaction, and the absorbance of was determined at 450 nm. The percentage of Pin1–HRP bound to the plate (% binding) was calculated by eq 1. To calculate the absorbance of a plate well in eq 1, the blank ligand-linked plate was predetermined at the same wavelength, and the absorbance of the blank well was subtracted from the absorbance of the same well containing the final solution. [drawing 2] 1
The competitive dissociation constants, Kd-obs, of cis-1{2, d}, trans-1{2, d}, 1{2,o}, and 1{18, m} were determined by ELEBA after the large-scale synthesis, HPLC purification, and quantification. The final concentrations of each compound were: 2.0, 10, 30, 50, 100, 200, 300, 500, 700, 1000, and 2000 μM. Ligands stock concentrations were 88 mM by weight, and the final concentrations for competitive dissociation constants (Kd) were 2000, 1000, 700, 500, 300, 200, 100, 50, 30, 10, and 5.0 μM. […]

The target of assay [2] is T2, Pin1 WW domain (full-length 15N-Pin1) (Homo sapiens, UniProt Q13526).
T2 construct: Full-length Pin1 was overexpressed and purified as described previously; made in house
The assay is described as follows: NMR 15N-1H HSQC chemical shift perturbation titration. Format: binding. The following applies: global two-state fit of WW domain NH CSPs; 295 K; pH 6.6; 48.6 μM Pin1; read-out: NMR CSP Kd. The text has this:
The ELEBA was developed as a method for high-throughput screening, rather than as an absolute measure of binding affinity. […] Since L1 is linked to the plate, ELEBA is not to be taken as a direct measurement of binding affinity.[32] We undertook NMR measurements to determine the affinity and location of binding directly by NMR to distinguish between binding to the catalytic and WW domains of Pin1. Standard NMR backbone ^15N–^1H chemical shifts were mapped onto existing assignments of Pin1 by recording 2-D ^15N–^1H HSQC spectra of full-length ^15N-Pin1 at different ligand concentrations (Figures S2–S5). NH cross-peaks showing ligand-induced chemical shift perturbations (CSPs) identified residues affected by binding. The largest magnitude CSPs were localized to the WW domain.
Full-length Pin1 was overexpressed and purified as described previously.[47] The final NMR buffer conditions were 30 mM imidazole-D4, pH 6.6, with 30 mM NaCl, 0.03% NaN3, 5 mM DTT-d10, and 90%H2O/10%D2O. The ligand stock solutions included 2.4 and 24 mM for 1{18,l}; 2.4 and 16 mM for trans-1{2,d}; 2.4 and 12 mM for cis-1{2,d}; 2.4 mM and 12 mM for 1{2,n}. The stock concentrations were confirmed by standard 1-D ^1H NMR of the samples diluted in the buffer described above.
The NMR titration spectra were recorded at a nominal temperature of 295 K, on a Bruker Avance 700 MHz (16.4 T) spectrometer equipped with a cryogenically cooled TCI probe. Sequential resonance assignments for wild type Pin1 were from our prior publications.[34],[35],[46]−[48] Data processing and cross-peak analysis used Topspin 1.3 and 2.1 (Bruker Biospin, Inc.), and Sparky (T. D. Goddard and D. G. Kneller, SPARKY 3, University of California, San Francisco). The initial Pin1 concentration (apo-Pin1) was 48.6 μM. We recorded 2-D ^15N–^1H HSQC spectra per Mori et al.[51] after each addition of ligand to get NH binding isotherms (NH chemical shift perturbations as a function of the total ligand concentration). Each 2-D data set consisted of 128 FIDs (64 complex points), with 16 scans per FID and a recycle time of 1s. The ^1H^N spectral width was 15 ppm, centered at 4.703 ppm; the ^15N spectral width was 35.24 ppm, centered at 118 ppm. The binding-induced ^15N–^1H chemical shift perturbations (CSPs) were calculated by eq 3. [drawing 4] 3 [35]
The ΔδH and ΔδN terms are the amide ^1H and ^15N chemical shift differences relative to isolated Pin1. To estimate the ligand Kd values for WW domain binding, we globally fitted WW domain NH binding isotherms to the expression for the bound protein fraction in a standard two-state binding equilibrium, P + L ⇌ PL, as described in our previous Pin1 studies.[35] The monitored WW domain residues included K13, R14, M15, S16, G20, R21, A31, S32, Q33, W34, and E35. […]

In assay [3] the target is T1, Pin1 WW domain (Pin1–HRP). The assay is described as follows: ELEBA primary screening assay of the library. Format: binding. As to conditions: separate plate of groups A and B (L2 control 85.0443); crude library members; DMSO = 100%; mean of N = 2. The method, then: (§2) The library was screened by the ELEBA we reported previously.[44] The crude products resulting from diethyl ether precipitation were used for the primary and secondary ELEBA without additional purification. The concentrations of the crude products were estimated based on quantitative yields; actual concentrations were thus lower, depending on yield and purity. The library products were dissolved in DMSO as stock solutions for assays. […] Recombinant human Pin1 conjugated to horseradish peroxidase (Pin1–HRP) was used in the binding assays.[44] Fmoc-VPRpTPVGGGK-NH2 L2 was used as the positive control and DMSO was used as the negative control on each plate. The percent of Pin1–HRP bound to the plate was calculated by normalizing the binding with DMSO to be 100%. In the primary assays (Figure S1), 14 of the best library members were identified: 1{2,d}, 1{18,f}, 1{20,f}, 1{10, l}, 1{13, l}, 1{18, l}, 1{20, l}, 1{10, n}, 1{18, n}, 1{19, n}, 1{2, n}, 1{20, n}, 1{14, o}, 1{3, o}. In the secondary assay, these ligands were measured again at 270 μM, and three hits, 1{2, d}, 1{18, l} and 1{2, n}, were chosen for further analysis (Figure 3).
as §1, with “2] 1 […]” for “2] 1”
The Fmoc-Ser(2- […]
cyanoethylphosphate)-OH product was cleaved from the resin with TFA. 1H NMR indicated the presence of the Fmoc group, implying that the substrate was successfully attached to the resin (data not shown). To develop the coupling methods, 2-(2-naphthyl)ethylamine and propionic acid were reacted with the pSer–Pro resin. The resulting propanoyl-pSer–Pro–(2-(2-naphthyl)ethyl)-amide (1H NMR below) was excluded from the library assays.
Figure S1 (following pages). Ligands (group A – O) were screening using ELEBA at ca. 266 µM.
Fmoc-VPRpTPVGGGK-NH2 L2 was used as positive control at 76-87 µM from stock solutions […]
of 4.3-4.8 mM. […]

The target in assay [4] is T1, Pin1 WW domain (Pin1–HRP). The assay is described as follows: ELEBA secondary binding assay. The following applies: 270 μM; crude product; DMSO = 100%. The method, then:
as §2
The best ligands from each group that blocked Pin1 WW domain binding of HRP-Pin1 bound to plate were reassayed at 270 μM to identify the best ligands through the same procedures above.

T2 sequence (Q13526 whole entry, the tested form may be a part): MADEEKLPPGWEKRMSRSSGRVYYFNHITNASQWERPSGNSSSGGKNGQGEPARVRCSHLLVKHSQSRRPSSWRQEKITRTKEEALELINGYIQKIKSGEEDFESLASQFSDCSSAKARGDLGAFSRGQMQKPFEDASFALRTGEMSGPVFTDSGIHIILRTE
T1 sequence (Q13526 whole entry, the tested form may be a part): as above

Turning to `CC(C)(Oc1ccc(Cl)cc1)C(=O)NC(COP(=O)(O)O)C(=O)N1CCCC1C(=O)Nc1ccc2[nH]ncc2c1` (centres unmarked) [1{2, n}], the Kd was 206 ± 3 µM in assay [1] and 208 ± 6 µM in assay [2].
`COc1ccc2c(c1)C(CC(=O)NC(COP(=O)(O)O)C(=O)N1CCCC1C(=O)NNC(=O)c1ccoc1)CC2=O` (centres unmarked) [1{18, l}]: the Kd is 130 ± 3 µM in assay [1] and 105 ± 9 µM in assay [2].
Consider `O=C(/C=C/c1c[nH]cn1)N[C@@H](COP(=O)(O)O)C(=O)N1CCC[C@H]1C(=O)N1CCOCC1` [1{20,b}], for which the “% of Pin1-HRP bound to plate-linked ligand” value in assay [3] came to 76.1089%. The “ELEBA secondary screen, % of baseline activity” value in assay [4] is “ca. 140%”.
Turning to `O=C(C=CSc1ccccc1)NC(COP(=O)(O)O)C(=O)N1CCCC1C(=O)Nc1ccc2[nH]ncc2c1` (stereo not drawn) [cis-1{2, d}], the “relative potency cis vs trans isomer” value in assay [1] (ELEBA Kd-obs of cis-1{2, d} vs trans-1{2, d}) was “about three times as potent as trans-1{2, d}”. The Kd in assay [1] was 263 ± 6 µM; in assay [2], 95 ± 6 µM.
Consider `O=C(C=CSc1ccccc1)NC(COP(=O)(O)O)C(=O)N1CCCC1C(=O)Nc1ccc2[nH]ncc2c1` (stereo not drawn) [trans-1{2, d}], for which the Kd in assay [1] came to 820 ± 6 µM; in assay [2], 214 ± 25 µM.
